Data on two molecules can be found in US20120165223A1 (priority 2006, published 2012).

This test has as its system crypt cells of the colon of HFA mice. The following applies: DNA chip, colonic crypt cells, 200 mg/kg orally four days. The protocol: The collected colon is opened and intestinal content is cleaned with a sterilized saline solution and put in a cryomold in the longitudinal direction to be embedded as an OCT compound and then it is maintained in a freezer at −80° C. The frozen tissue is cut to have the thickness of 8 μm using a cryotome, put on a glass slide (HistoGene LCM slide, Arcturus) and cleaned using a staing (HistoGene LCM frozen section staing kit, Arcturus) and then a hematoxylin stain is performed and then dehydrated. The stained colonic tissue slide of the dyed mice is put on a laser captured microdissector (PixCell II, Arcturus) and crypt cells are isolated from the colon by a laser.
The amplified aRNA (24 μl) of 10 μg is mixed with random hexamer (5 mg/Ml) of 2 μl to be 24 μl which is heated for 10 minutes at 70° C. The first strand master mix liquid of 26 μl containing Cy3- or Cy5-dUTP (1 mM, respectively) is added to aRNA and reacted for two hours at 37° C. […] After the cDNA is deactivated for three minutes at 98° C., a control target of 25 μl with 2× hybridization buffer of 105 μl (Agilent In situ Hybridization kit) to be instilled on a mouse DNA microarray chip (TwinChip Mouse 7.4K cDNA array, Digital Genomics, Seoul, Korea) and hybridized for 17 hours at 60° C. […] Each fluorescence intensity is obtained by performing a global normalization and measuring the ratio of expressing Cy3- and Cy5- fluorescence with respect to one gene.

Molecules are shown by their SMILES.

On to `CN(C)[C@@H]1C(=O)C(C(N)=O)=C(O)[C@@]2(O)C(=O)C3=C(O)c4c(O)cccc4[C@@](C)(O)[C@H]3C[C@@H]12` [TC, Tetracycline], for which the “Ang gene expression in comparison with HFA (FIG. 4a)” value is given as “nearly two or four times”, the “Casp14 gene expression in comparison with HFA (FIG. 3A)” value is reported as “increase the expression of the genes”, the “Eif2ak3 gene expression in comparison with HFA (FIG. 3A)” value was “increase the expression of the genes” and the “I16 gene expression in comparison with HFA (FIG. 3A)” value is recorded as “increase the expression of the genes”. For the same molecule, the “Mpp1 gene expression in comparison with HFA (FIG. 4a)” value was “prevent genes from expressing themselves more than twice”, the “Mt1 gene expression in comparison with HFA (FIG. 4a)” value is recorded as “nearly two or four times”, the “S1c26a1 gene expression in comparison with HFA (FIG. 4a)” value is on record as “prevent genes from expressing themselves more than twice” and the “Saa3 gene expression in comparison with HFA (FIG. 4a)” value is “prevent genes from expressing themselves more than twice”. Moreover, the “Spn2a gene expression in comparison with HFA (FIG. 3A)” value is on record as “prevent genes from expressing themselves more than twice” and the “Tegt gene expression in comparison with HFA (FIG. 3A)” value is “prevent genes from expressing themselves more than twice”.
Consider `O=C(O)c1cn(C2CC2)c2cc(N3CCNCC3)c(F)cc2c1=O` [Cip, Ciprofloxacin], for which the “Ang gene expression in comparison with HFA (FIG. 4a)” value is “nearly two or four times”, the “Casp14 gene expression in comparison with HFA (FIG. 3A)” value was “increase the expression of the genes”, the “Eif2ak3 gene expression in comparison with HFA (FIG. 3A)” value was “increase the expression of the genes” and the “I16 gene expression in comparison with HFA (FIG. 3A)” value is “increase the expression of the genes”. Moreover, the “Mpp1 gene expression in comparison with HFA (FIG. 4a)” value is “prevent genes from expressing themselves more than twice”, the “Mt1 gene expression in comparison with HFA (FIG. 4a)” value is “nearly two or four times”, the “S1c26a1 gene expression in comparison with HFA (FIG. 4a)” value is reported as “prevent genes from expressing themselves more than twice” and the “Saa3 gene expression in comparison with HFA (FIG. 4a)” value is on record as “prevent genes from expressing themselves more than twice”. Moreover, the “Spn2a gene expression in comparison with HFA (FIG. 3A)” value is given as “prevent genes from expressing themselves more than twice” and the “Tegt gene expression in comparison with HFA (FIG. 3A)” value was “prevent genes from expressing themselves more than twice”.
